This note sets out measurements from US10538516B2, “Oxadiazole derivative and pharmaceutical containing same” (National Center for Geriatrics and Gerontology, priority 2015, dated 2020).

The target of the test is T1, GAβ-dependent amyloid fibril formation (Human Aβ1-40 + GM1-containing liposome) (Homo sapiens, UniProt P05067).
T1 construct: Human Aβ1-40 (cat. #4307-v, prepared by Peptide Institute); purchased Peptide Institute 4307-v
Put plainly: Thioflavin T (ThT) assay of GAβ-dependent amyloid fibril formation (Aβ1-40 with GM1-containing liposome). In kind it is biochemical. An outline of the steps: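 Human Aβ1-40 (75 μM stock) pre-incubated 10 min at room temperature with compound (75 or 15 μM solution), then GM1-containing cholesterol/sphingomyelin liposome added and incubated 37° C, 18 hours. Fibrils quantified by ThT fluorescence (ex 430/em 490 nm, pH 8.5 glycine buffer); inhibition as ratio to compound-free control.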

Setting [1] is: inhibition rate against amyloid fibril formation, final concentration of the compound 25 μM, read-out: Inhibitory activity ABC evaluation.
The mark [2] stands for this setting: @25 μM, read-out: ThT Inhibitory activity (% inhibition).

Like-named read-outs stand apart in the source and are kept apart here.

T1 sequence (P05067 672-711 limits assumed): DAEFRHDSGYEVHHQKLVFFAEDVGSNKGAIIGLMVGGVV

`O=C(N[C@@H](CO)c1nc(-c2ccc(C(F)(F)F)cc2)no1)c1ccc(F)nc1` [Compound 157, 6-fluoro-N-[(1S)-2-hydroxy-1-{3-[4-(trifluoromethyl)phenyl]-1,2,4-oxadiazol-5-yl}ethyl] pyridine-3-carboxamide]: the inhibition at 25 µM under setting [1] is above 80%.
For the compound `O=C(N[C@@H](CO)c1nc(-c2csc(Cl)c2)no1)c1ccc(F)cc1` [Compound 227], under setting [1], the inhibition at 25 µM was 40 to 80%.
The same measure, in the same setting: to `O=C1CC(c2nc(-c3ccc(OC(F)(F)F)cc3)no2)CN1c1ccc(Cl)cn1` (stereo not shown) [Compound 49, 1-(5-chloropyridin-2-yl)-4-[3-{4-(trifluoro-methoxy)phenyl}-1,2,4-oxadiazol-5-yl] pyrrolidin-2-one] belongs 40 to 80%.
`O=C(N[C@@H](CO)c1nc(-c2ccc(OCCO)cc2)no1)c1ccccc1` [Compound 156, N-[(1S)-2-hydroxy-1-{3-[4-(2-hydroxyethoxy)phenyl]-1,2,4-oxadiazol-5-yl}ethyl] benzamide]: the inhibition at 25 µM is, setting by setting: under setting [2], 74%; under setting [1], 40 to 80%.
As to `CNC(=O)C[C@H](NC(=O)c1ccc(Cl)cc1)c1nc(-c2ccc(OC(F)(F)F)cc2)no1` [Compound 88, (S)-4-chloro-N-(3-(methylamino)-3-oxo-1-[3-{4-(trifluoromethoxy)phenyl}-1,2,4-oxadiazol-5-yl]propyl) benzamide], the inhibition at 25 µM under setting [1] was below 40%.
The same measure, in the same setting: to `CCCN(C(=O)CCc1nc(-c2ccc(OC)cc2)no1)c1cncc(Cl)c1` [Compound 5, N-(5-chloropyridin-3-yl)-3-{3-(4-methoxyphenyl)-1,2,4-oxadiazol-5-yl}-N-propylpropanamide] belongs 40 to 80%.
In the case of `O=C(c1ccc(Cl)cc1)N1C[C@H](O)C[C@H]1c1nc(-c2ccc(OC(F)(F)F)cc2)no1` [Compound 82, (4-chlorophenyl) ((2S,4R)-4-hydroxy-2-[3-{4-(trifluoro-methoxy)phenyl}-1,2,4-oxadiazol-5-yl]pyrrolidin-1-yl)methanone], the “Inhibitory activity ABC evaluation” value (inhibition rate against amyloid fibril formation, final concentration of the compound 25 μM, 25 µM) is on record as “C (the inhibition rate of less than 40% was evaluated as C)”.
As for `Cn1cc(-c2noc([C@H](CO)NC(=O)c3ccc(F)cc3)n2)c2ccccc21` [Compound 245, 4-fluoro-N-[(1S)-2-hydroxy-1-[3-(1-methyl-1H-3-yl)-1,2,4-oxadiazol-5-yl]ethyl]benzamide], the inhibition at 25 µM under setting [1] lay in the range of 40 to 80%.
The same measure, in the same setting: to `O=C1CC(c2nc(-c3ccc(OC(F)(F)F)cc3)no2)CN1c1ccc(F)cc1` (stereo not drawn) [Compound 26, l-(4-fluorophenyl)-4-[3-{4-(trifluoro-methoxy)phenyl}-1,2,4-oxadiazol-5-yl]pyrrolidin-2-one] belongs 40 to 80%; to `O=C(N[C@@H](CO)c1nc(-c2c[nH]c3ccc(Cl)cc23)no1)c1ccc(N2CCCC2)cc1` [Compound 253, N-[(1S)-1-[3-(5-chloro-1H-indol-3-yl)-1,2,4-oxadiazol-5-yl]-2-hydroxyethyl]-4-(pyrrolidin-1-yl) benzamide], 40 to 80%; to `O=C1CC(CO)(c2nc(-c3ccc4c(c3)OC(F)(F)O4)no2)CN1c1ccc(Cl)cc1` (stereo not shown) [Compound 73, 1-(4-chlorophenyl)-4-[3-(2,2-difluorobenzo[d][1,3]dioxol-5-yl)-1,2,4-oxadiazol-5-yl]-4-(hydroxymethyl)pyrrolidin-2-one], above 80%.
Consider `O=C1CC(CO)(c2nc(-c3ccc(O)cc3)no2)CN1c1ccc(Cl)cc1` (stereo not shown) [Compound 72, 1-(4-chloro-phenyl)-4-(hydroxy-methyl)-4-{3-(4-hydroxyphenyl)-1,2,4-oxadiazol-5-yl} pyrrolidin-2-one], for which the inhibition at 5 µM (@5 μM, read-out: ThT Inhibitory activity (% inhibition)) was found to be 47%. The inhibition at 25 µM is 81% under setting [2] and above 80% under setting [1].
Regarding `O=C(N[C@@H](CO)c1nc(-c2ccc(C(F)(F)F)cc2)no1)c1ccc(N2CCCC2)cc1` [Compound 203, N-[(1S)-2-hydroxy-1-{3-[4-(trifluoromethyl)phenyl]-1,2,4-oxadiazol-5-yl}ethyl]-4-(pyrrolidin-1-yl) benzamide], the inhibition at 25 µM under setting [2] came to 81% and the inhibition at 25 µM under setting [1] is above 80%.
Take `O=C(NC(CO)c1nc(-c2ccc(C(F)(F)F)cc2)no1)c1ccc2[nH]ccc2c1` (stereo not shown) [Compound 183, N-(2-hydroxy-1-{3-[4-(trifluoromethyl)phenyl]-1,2,4-oxadiazol-5-yl}ethyl)-1H-indole-5-carboxamide]: the inhibition at 25 µM under setting [1] is above 80%.
Still for that read-out and setting: the value for `CN(C(=O)c1ccc(Cl)cc1)C(C)(C)c1nc(-c2ccc(OC(F)(F)F)cc2)no1` [Compound 21, 4-chloro-N-methyl-N-(2-{3-[4-(trifluoromethoxy)phenyl]-1,2,4-oxadiazole-5-yl}propan-2-yl)benzamide] was below 40%; that for `NC(Cc1ccc(O)cc1)c1nc(-c2ccc(OC(F)(F)F)cc2)no1` (stereo not shown) [Compound 38, 4-(2-amino-2-[3-{4-(trifluoromethoxy)phenyl}-1,2,4-oxadiazol-5-yl]ethyl)phenol] was 40 to 80%.
Still for that read-out and setting: to `O=C(N[C@@H](CO)c1nnc(-c2ccc(OC(F)(F)F)cc2)o1)c1ccc(F)cc1` [Compound 112, (S)-4-fluoro-N-(2-hydroxy-1-(5-(4-(tri-fluoromethoxy)phenyl)-1,3,4-oxadiazol-2-yl)ethyl)benzamide] belongs 40 to 80%; to `O=C(N[C@@H](CO)c1nc(-c2ccc(-c3ccccc3)s2)no1)c1ccc(F)cc1` [Compound 248, 4-fluoro-N-[(1S)-2-hydroxy-1-[3-(5-phenylthiophen-2-yl)-1,2,4-oxadiazol-5-yl]ethyl]benzamide], 40 to 80%; to `CC(C)c1ccc(-c2noc([C@H](CO)NC(=O)c3ccccc3)n2)cc1` [Compound 145, N-[(1S)-2-hydroxy-1-{3-[4-(propan-2-yl)phenyl]-1,2,4-oxadiazol-5-yl}ethyl]benzamide], 40 to 80%.
Take `O=C(N[C@@H](CO)c1nc(-c2cc(Cl)c(Cl)[nH]2)no1)c1ccc(F)cc1` [Compound 249, N-[(1S)-1-[3-(4,5-dichloro-1H-pyrrol-2-yl)-1,2,4-oxadiazol-5-yl]-2-hydroxyethyl]-4-fluorobenzamide]: the inhibition at 25 µM under setting [1] was in the range of 40 to 80%.
As for `Cc1ccc(-c2noc([C@H](CO)NC(=O)c3ccccc3)n2)cc1` [Compound 143, N-[(1S)-2-hydroxy-1-[3-(4-methylphenyl)-1,2,4-oxadiazol-5-yl]ethyl]benzamide], the inhibition at 25 µM under setting [1] is above 80%.
Consider `O=C(N[C@@H](CO)c1nc(-c2ccccc2C(F)(F)F)no1)c1ccc(F)cc1` [Compound 181, 4-fluoro-N-[(1S)-2-hydroxy-1-{3-[2-(trifluoromethyl)phenyl]-1,2,4-oxadiazol-5-yl}ethyl]benzamide], for which the inhibition at 25 µM was 73% under setting [2] and 40 to 80% under setting [1].
Taken in the same sequence, the figures for `CC(=O)c1ccc(-c2noc([C@H](CO)NC(=O)c3ccccc3)n2)cc1` [Compound 153, N-[(1S)-1-[3-(4-acetylphenyl)-1,2,4-oxadiazol-5-yl]-2-hydroxyethyl] benzamide] were 76% and 40 to 80%.
`Nc1n[nH]cc1-c1noc([C@H](CO)NC(=O)c2ccc(F)cc2)n1` [Compound 257, N-[(1S)-1-[3-(3-amino-1H-pyrazol-4-yl)-1,2,4-oxadiazol-5-yl]-2-hydroxyethyl]-4-fluorobenzamide]: the inhibition at 25 µM under setting [1] lay in the range of 40 to 80%.
Same read-out and setting: to `O=C(N[C@@H](CO)c1nc(-c2ccc(C(F)(F)F)c(F)c2)no1)c1ccc(F)cc1` [Compound 217, 4-fluoro-N-[(1S)-1-{3-[3-fluoro-4-(trifluoromethyl)phenyl]-1,2,4-oxadiazol-5-yl}-2-hydroxyethyl] benzamide] belongs 40 to 80%; to `O=C(N[C@@H](CO)c1nc(-c2ccc(-n3cccn3)cc2)no1)c1ccccc1` [Compound 180], below 40%.
Still for that read-out and setting: to `O=C(N[C@@H](CO)c1nc(-c2ccc(C(F)F)cc2)no1)c1ccccc1` [Compound 168, N-[(1S)-1-{3-[4-(difluoromethyl)phenyl]-1,2,4-oxadiazol-5-yl}-2-hydroxyethyl] benzamide] belongs above 80%.
On to `O=C(N[C@@H](CO)c1nc(-c2ccc(Br)cc2)no1)c1ccc(F)cc1` [Compound 163, N-[(1S)-1-[3-(4-bromophenyl)-1,2,4-oxadiazol-5-yl]-2-hydroxyethyl]-4-fluorobenzamide], for which the inhibition at 25 µM under setting [1] was 40 to 80%.
Regarding `C[C@@H](O)[C@H](NC(=O)c1ccc(Cl)cc1)c1nc(-c2ccc(OC(F)(F)F)cc2)no1` [Compound 80, 4-chloro-N-((1S,2R)-2-hydroxy-1-[3-{4-(trifluoro-methoxy)phenyl}-1,2,4-oxadiazol-5-yl]propyl) benzamide], the inhibition at 25 µM reads like this: under setting [2], 80%; under setting [1], above 80%.
Regarding `O=C(c1ccc(Cl)cc1)N1CC(c2nc(-c3ccc(OC(F)(F)F)cc3)no2)C1` [Compound 68, (4-chloro-phenyl)(3-[3-{4-(trifluoro-methoxy)phenyl}-1,2,4-oxadiazol-5-yl]azetidin-1-yl)methanone], the inhibition at 25 µM under setting [1] fell in the range of 40 to 80%.
For the compound `O=C(NC1(c2nc(-c3ccc(OC(F)(F)F)cc3)no2)CCCC1)c1cccc(Cl)c1` [Compound 35, 3-chloro-N-(1-[3-{4-(trifluoromethoxy)phenyl}-1,2,4-oxadiazol-5-yl]cyclopentyl) benzamide], under setting [1], the inhibition at 25 µM was below 40%.
On the same count and under the same terms, the value for `O=C(N[C@@H](CO)c1nc(-c2cc3ccccc3s2)no1)c1ccc(F)cc1` [Compound 232, N-[(1S)-1-[3-(1-benzothiophen-2-yl)-1,2,4-oxadiazol-5-yl]-2-hydroxyethyl]-4-fluorobenzamide] was above 80%; that for `CN(Cc1cccc(F)c1)C(=O)CCc1nc(-c2ccc(O)cc2)no1` [Compound 14, N-(3-fluorobenzyl)-3-{3-(4-hydroxyphenyl)-1,2,4-oxadiazol-5-yl}-N-methylpropanamide] was below 40%.
